One experiment deals with D(3) dopamine receptor (Homo sapiens, UniProt P35462). Briefly: biochemical. It is filed as cell-based, CHO.
The next experiment concerns the target D(2) dopamine receptor (Homo sapiens, UniProt P14416). Briefly: biochemical. It is filed as cell-based, CHO.

pKi: −log10 of the molar value.

Chain of D(2) dopamine receptor (P14416 whole entry): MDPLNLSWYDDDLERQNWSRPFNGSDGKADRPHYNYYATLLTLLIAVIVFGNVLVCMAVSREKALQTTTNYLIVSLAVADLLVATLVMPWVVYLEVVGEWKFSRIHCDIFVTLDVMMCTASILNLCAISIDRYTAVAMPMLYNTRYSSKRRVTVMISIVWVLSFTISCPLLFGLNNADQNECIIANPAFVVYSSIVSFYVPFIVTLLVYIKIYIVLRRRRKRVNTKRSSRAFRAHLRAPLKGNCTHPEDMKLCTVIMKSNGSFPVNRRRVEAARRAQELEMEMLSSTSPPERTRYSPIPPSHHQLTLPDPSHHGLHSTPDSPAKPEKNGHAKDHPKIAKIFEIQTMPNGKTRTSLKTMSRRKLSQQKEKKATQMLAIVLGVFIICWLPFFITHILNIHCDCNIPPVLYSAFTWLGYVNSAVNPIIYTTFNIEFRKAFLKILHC
Chain of D(3) dopamine receptor (P35462 whole entry): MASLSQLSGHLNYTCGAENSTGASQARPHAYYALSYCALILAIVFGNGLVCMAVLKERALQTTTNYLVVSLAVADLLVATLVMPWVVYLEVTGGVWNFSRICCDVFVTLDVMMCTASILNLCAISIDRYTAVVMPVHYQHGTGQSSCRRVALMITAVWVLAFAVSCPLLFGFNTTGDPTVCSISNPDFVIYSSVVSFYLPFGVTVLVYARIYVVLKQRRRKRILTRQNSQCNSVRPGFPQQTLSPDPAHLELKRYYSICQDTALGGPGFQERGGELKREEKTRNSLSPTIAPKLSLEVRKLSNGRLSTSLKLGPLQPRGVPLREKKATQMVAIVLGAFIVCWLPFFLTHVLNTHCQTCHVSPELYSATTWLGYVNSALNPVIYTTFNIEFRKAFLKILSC
Description for D(2) dopamine receptor: Binding affinity towards human Dopamine receptor D2 by displacement of [125I]iodosulpiride expressed in CHO cells
Description for D(3) dopamine receptor: Binding affinity towards human Dopamine receptor D3 by displacement of [125I]iodosulpiride expressed in CHO cells

In general, pKi refers to the Ki on a negative log10 scale, so that one unit is a factor of ten. A high value points to a small Ki. Turning to `CC(=O)Nc1cccc(/C=C/C(=O)N[C@H]2CC[C@H](CCN3CCc4ccc(C#N)cc4CC3)CC2)c1`, the results for the pKi on D(3) dopamine receptor and on D(2) dopamine receptor were 8.50 and 6.30, respectively.

Regarding `N#Cc1ccc2c(c1)CCN(CC[C@H]1CC[C@H](NC(=O)/C=C/c3ccc(F)cc3)CC1)CC2`, the pKi on D(3) dopamine receptor was 8.20; on D(2) dopamine receptor, 6.40.

In the case of `N#Cc1ccc2c(c1)CCN(CC[C@H]1CC[C@H](NC(=O)/C=C/c3ccccc3F)CC1)CC2`, the pKi was 8.00 at D(3) dopamine receptor and 6.20 on D(2) dopamine receptor.

Regarding `CC(=O)c1cccc(/C=C/C(=O)N[C@H]2CC[C@H](CCN3CCc4ccc(C#N)cc4CC3)CC2)c1`, the pKi was 8.40 on D(3) dopamine receptor and 6.70 on D(2) dopamine receptor.

Turning to `N#Cc1ccc2c(c1)CCN(CC[C@H]1CC[C@H](NC(=O)/C=C/c3cccc(F)c3)CC1)CC2`, the pKi at D(3) dopamine receptor is 8.20; at D(2) dopamine receptor, 6.40.

For the compound `N#Cc1ccc2c(c1)CCN(CC[C@H]1CC[C@H](NC(=O)c3ccnc4ccccc34)CC1)CC2`, the pKi was 7.60 on D(3) dopamine receptor and 5.90 on D(2) dopamine receptor.

In the case of `N#Cc1ccc2c(c1)CCN(CC[C@H]1CC[C@H](NC(=O)c3cc4ccccc4[nH]3)CC1)CC2`, the pKi on D(3) dopamine receptor was 7.80; on D(2) dopamine receptor it was 6.50.

With `N#Cc1ccc2c(c1)CCN(CC[C@H]1CC[C@H](NC(=O)c3cccc4ccccc34)CC1)CC2`, the pKi is 7.70 on D(3) dopamine receptor and 5.90 on D(2) dopamine receptor.

Take `N#Cc1ccc2c(c1)CCN(CC[C@H]1CC[C@H](NC(=O)c3ccc4c(c3)NC(=O)CO4)CC1)CC2`: the pKi on D(3) dopamine receptor was 8.20; at D(2) dopamine receptor, 6.10.

`N#Cc1ccc2c(c1)CCN(CC[C@H]1CC[C@H](NC(=O)c3cccc4ncccc34)CC1)CC2`: the pKi was 7.90 on D(3) dopamine receptor and 5.70 at D(2) dopamine receptor.

With `CC(=O)Nc1cccc(/C=C/C(=O)N[C@H]2CC[C@H](CCN3CCc4ccc(C#N)cc4CC3)CC2)c1F`, the figures for the pKi at D(3) dopamine receptor and on D(2) dopamine receptor were 8.40 and 6.30, respectively.

On to `N#Cc1ccc2c(c1)CCN(CC[C@H]1CC[C@H](NC(=O)c3ccc4ccccc4c3)CC1)CC2`, for which the pKi was 7.70 on D(3) dopamine receptor and 5.50 on D(2) dopamine receptor.

With `COc1cccc(/C=C/C(=O)N[C@H]2CC[C@H](CCN3CCc4ccc(C#N)cc4CC3)CC2)c1`, the pKi at D(3) dopamine receptor was 8.50; on D(2) dopamine receptor it was 6.20.

`N#Cc1ccc2c(c1)CCN(CC[C@H]1CC[C@H](NC(=O)c3ccc4ccc(O)nc4c3)CC1)CC2`: the pKi on D(3) dopamine receptor was 8.00; at D(2) dopamine receptor it was 6.30.

These data come from ChEMBL document CHEMBL1133070, “Novel 2,3,4,5-tetrahydro-1H-3-benzazepines with high affinity and selectivity for the dopamine D3 receptor” (Bioorg Med Chem Lett, 2000).
